# Data: patent publication US20190367516A1 (Bayer Pharma Aktiengesellschaft, priority 2015, published 2019)
# Where two headings read alike, the source gives them in different places.
# Experiments:
# human M2 receptor [1] = target: T1, human M2 receptor (Homo sapiens, UniProt P08172); format: cell-based; details: α >1 = positive cooperativity
# T1 sequence (P08172 1-466): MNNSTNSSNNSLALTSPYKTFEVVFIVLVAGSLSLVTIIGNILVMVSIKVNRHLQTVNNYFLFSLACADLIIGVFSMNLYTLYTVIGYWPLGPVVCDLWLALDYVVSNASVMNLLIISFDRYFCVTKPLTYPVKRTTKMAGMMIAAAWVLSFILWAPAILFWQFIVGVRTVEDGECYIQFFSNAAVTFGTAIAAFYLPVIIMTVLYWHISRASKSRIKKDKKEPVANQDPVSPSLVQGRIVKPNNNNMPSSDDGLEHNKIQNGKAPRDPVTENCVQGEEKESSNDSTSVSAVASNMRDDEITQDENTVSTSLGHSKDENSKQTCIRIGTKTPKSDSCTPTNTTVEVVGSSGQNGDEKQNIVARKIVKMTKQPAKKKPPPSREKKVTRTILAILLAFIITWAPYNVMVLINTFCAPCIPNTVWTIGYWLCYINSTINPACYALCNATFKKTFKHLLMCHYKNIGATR
# Method: B-1.2. Determination of Positive Cooperativity (α Factor)
# In contrast to the EC50 determination of the test substances (see B-1.1), however, this is not done using one acetylcholine concentration; instead, every concentration of the test substance is combined with an acetylcholine 8-point dose-response curve. […] The shift in the acetylcholine dose-response curve in the presence of increasing concentrations of the test substance is analysed and quantified by means of GraphPad PRISM (Allosteric EC50 shift). […] Positive cooperativity is the hallmark of a positive allosteric modulator. […] The greater the magnitude of the α value, the greater the extent of cooperativity between orthosteric and allosteric.
# human M2 receptor [2] = target: T1, human M2 receptor; details: for Efficiency: boosting of the acetylcholine effect at EC20 acetylcholine concentration
# Description: Functional M2-GIRK1/4 Activation Test
# The binding of orthosteric agonists (endogenous ligand: acetylcholine) to the M2 receptor leads to receptor activation or a change in conformation of the receptor in the manner of a shift in equilibrium in favour of the active receptor conformation.
# The agonist-induced change in conformation of the M2 receptor results in a Gαi protein activation. […] Under physiological conditions, the result is then a selective efflux of potassium from the cell along the electrochemical gradient. […] The extent of hyperpolarization can therefore be regarded as a measure of the activation of the M2 receptor.
# The test cell used is a recombinant CHO-DUKX cell line which has been stably transfected with cDNA coding for the human M2 receptor and with cDNA coding for both GIRK1/4 subunits (CHO-DUKX-M2-GIRK). The transmembrane potential, or the relative changes in the transmembrane potential as a function of substance addition or M2 activation, is determined by means of a voltage-sensitive dye (FLIPR Membrane Potential Assay Kit Blue, Molecular Devices # R8034) and the measurement of cell fluorescence using a proprietary fluorescence imaging instrument.
# Determination of the Allosteric Potency of the Test Substances (EC50 Value)
# The sowing medium consisted of MEM alpha medium (supplemented with 5% FCS, 2% Glutamax, no genticin).
# For the particular measurement, the medium was removed and the cells were laden with the voltage-sensitive dye for at least 6 min at room temperature (30 μl of loading buffer per 384-well). This was followed, in a first measurement, by the determination of the fluorescence for the resting transmembrane potential for a period of 5 sec. Thereafter, 10 μl in each case of the test substances diluted in loading buffer were added, followed by a second measurement to determine the transmembrane potential for a period of 50 sec. Finally, the cells were admixed with 10 μl of agonist solution (acetylcholine dissolved in loading buffer). Acetylcholine was used at the concentration corresponding to the EC20, which had been determined in a preliminary test. The M2-mediated GIRK1/4 activation or hyperpolarization was then monitored in a third measurement over a period of 60 sec. The EC50 value (degree of allosteric potency of test compound) and the efficiency (measure of the boosting of the acetylcholine effect at an EC20 acetylcholine concentration) were determined with the aid of a 4-parameter logistic function (Hill function).
# [3] = shift in the acetylcholine dose-response curve (Allosteric EC50 shift, GraphPad PRISM)
# [4] = Receptor activity EC50, M2-GIRK1/4 activation test, acetylcholine at EC20, allosteric potency, in some cases mean values from two or more determinations
# [5] = shift of acetylcholine dose-response curve (Allosteric EC50 shift)
# [6] = Receptor activity EC50, allosteric potency at EC20 acetylcholine, M2-GIRK1/4 reporter cells, in some cases mean of two or more determinations
# [7] = read-out: Efficiency, boosting of the acetylcholine effect at EC20 acetylcholine concentration, M2-GIRK1/4 reporter cells
SMILES,Cooperativity (alpha factor) (human M2 receptor [1]; [3]),EC50 (human M2 receptor [2]; [4]) [nM],Cooperativity (alpha factor) (human M2 receptor [1]; [5]),EC50 (human M2 receptor [2]; [6]) [nM],other results
"O=C(NC(c1ccccc1Cl)C(F)(F)F)c1cn(-c2ccccc2F)c2nc(N3CCC(O)C3=O)ccc2c1=O (single isomer, unassigned) [Example 288]",12,40,–,–,–
"CC[C@@H](NC(=O)c1cn(-c2c(F)cc(F)cc2F)c2nc(N3CCC(O)C3=O)ccc2c1=O)C(F)(F)F (single isomer, unassigned) [Example 281]",44,34,–,–,–
"CC(NC(=O)c1cn(-c2ccc(F)cc2F)c2nc(N3C[C@@H](O)CC3=O)ccc2c1=O)c1c(F)cccc1F (single isomer, unassigned) [Example 216]",35,89,–,–,–
"O=C(NC12CC3CC(CC(C3)C1)C2)c1cn(-c2ccc(F)cc2F)c2nc(N3CCC(O)(O)[C@H](F)C3)ccc2c1=O [Example 7, 1-(2,4-Difluorophenyl)-7-[(3R)-3-fluoro-4,4-dihydroxypiperidin-1-yl]-4-oxo-N-(tricyclo[3.3.1.1^3,7]dec-1-yl)-1,4-dihydro-1,8-naphthyridine-3-carboxamide]",34,34,–,–,–
"CC[C@H](NC(=O)c1cn(-c2c(F)cc(F)cc2Cl)c2nc(N3CCC(C)C3=O)ccc2c1=O)C(F)(F)F (single isomer, unassigned) [Example 425]",–,–,9,5,Efficiency (human M2 receptor [2]; M2-GIRK1/4 reporter cells): 90.5%
"CC(C)C(NC(=O)c1cn(-c2c(F)cc(F)cc2F)c2nc(N3C[C@@H](O)[C@H](O)C3)ccc2c1=O)C(C)C [Example 474, 7-[(3R,4R)-3,4-Dihydroxypyrrolidin-1-yl]-N-(2,4-dimethylpentan-3-yl)-4-oxo-1-(2,4,6-trifluorophenyl)-1,4-dihydro-1,8-naphthyridine-3-carboxamide]",–,–,44,5,Emax (human M2 receptor [2]; [7]): 100%
"CC(C)C(NC(=O)c1cn(-c2c(F)cc(F)cc2F)c2nc(N3C[C@@H](O)[C@H](O)C3)ccc2c1=O)C(F)(F)F (single isomer, unassigned) [Example 553]",–,–,49,13,Emax (human M2 receptor [2]; [7]): 97.5%
"CC[C@H](NC(=O)c1cn(-c2ccccc2F)c2nc(N(C)C)ccc2c1=O)C(F)(F)F [Example 203, 7-(Dimethylamino)-1-(2-fluorophenyl)-4-oxo-N-[(2S)-1,1,1-trifluorobutan-2-yl]-1,4-dihydro-1,8-naphthyridine-3-carboxamide]",8,62,–,–,–
"CCC1CCN(c2ccc3c(=O)c(C(=O)N[C@@H](C4CC4)C(F)(F)F)cn(-c4c(F)cc(F)cc4F)c3n2)C(=O)N1 (single isomer, unassigned) [Example 448, N-[(1 S)-1-Cyclopropyl-2,2,2-trifluoroethyl]-7-[4-ethyl-2-oxotetrahydropyrimidin-1(2H)-yl]-4-oxo-1-(2,4,6-trifluorophenyl)-1,4-dihydro-1,8-naphthyridine-3-carboxamide]",–,–,22,19,Efficiency (human M2 receptor [2]; M2-GIRK1/4 reporter cells): 97.0%
"CC[C@@H](NC(=O)c1cn(-c2ccc(F)cc2F)c2nc(N3C[C@@H](O)[C@H](O)C3)ccc2c1=O)C(F)(F)F [Example 646, 1-(2,4-Difluorophenyl)-7-[(3R,4R)-3,4-dihydroxypyrrolidin-1-yl]-4-oxo-N-[(2R)-1,1,1-trifluorobutan-2-yl]-1,4-dihydro-1,8-naphthyridine-3-carboxamide]",–,–,30,74,Emax (human M2 receptor [2]; [7]): 100%
"CCC(COC(F)(F)F)NC(=O)c1cn(-c2ccc(F)cc2F)c2nc(N3C[C@@H](O)CC3=O)ccc2c1=O (stereo partly drawn) [Example 234, 1-(2,4-Difluorophenyl)-7-[(4S)-4-hydroxy-2-oxopyrrolidin-1-yl]-4-oxo-N-[1-(trifluoromethoxy)butan-2-yl]-1,4-dihydro-1,8-naphthyridine-3-carboxamide]",28,75,–,–,–
"O=C(NC(c1c(F)cccc1F)C(F)(F)F)c1cn(-c2ccc(F)cc2F)c2nc(N3CC[C@H](F)C3)ccc2c1=O (single isomer, unassigned) [Example 243]",33,15,–,–,–
"O=C(NC(CC(F)(F)F)C(F)(F)F)c1cn(-c2c(F)cc(F)cc2F)c2nc(N3C[C@@H](O)CC3=O)ccc2c1=O (single isomer, unassigned) [Example 607]",–,–,32,5,Emax (human M2 receptor [2]; [7]): 100%
"CCC(NC(=O)c1cn(-c2ccc(F)cc2F)c2nc(N3CCN(C(=O)OC)CC3)ccc2c1=O)C(F)(F)F (single isomer, unassigned; enantiomer b) [Example 25, ent-Methyl 4-{8-(2,4-difluorophenyl)-5-oxo-6-[(1,1,1-trifluorobutan-2-yl)carbamoyl]-5,8-dihydro-1,8-naphthyridin-2-yl}piperazine-1-carboxylate (Enantiomer B)]",20,84,–,–,–
"CN(CCO)c1ccc2c(=O)c(C(=O)N[C@@H](C3CC3)C(F)(F)F)cn(-c3c(F)cc(F)cc3F)c2n1 [Example 384, N-[(1S)-1-Cyclopropyl-2,2,2-trifluoroethyl]-7-[(2-hydroxyethyl)(methyl)amino]-4-oxo-1-(2,4,6-trifluorophenyl)-1,4-dihydro-1,8-naphthyridine-3-carboxamide]",22,28,–,–,–
"CC[C@@H](NC(=O)c1cn(-c2ccc(F)cc2F)c2nc(N3CC4CNC(=O)C4C3)ccc2c1=O)C(F)(F)F (mixture of isomers) [Example 221, 1-(2,4-Difluorophenyl)-4-oxo-7-[4-oxohexahydrpyrrolo[3,4-c]pyrrol-2(1H)-yl]-N-[(2R)-1,1,1-trifluorobutan-2-yl]-1,4-dihydro-1,8-naphthyridine-3-carboxamide]",24,106,–,–,–
"CC12CCC(NC(=O)c3cn(-c4ccc(F)cc4F)c4nc(N5CC[C@@H](O)C5)ccc4c3=O)(CC1)CC2 [Example 20, 1-(2,4-Difluorophenyl)-7-[(3R)-3-hydroxypyrrolidin-1-yl]-N-(4-methylbicyclo[2.2.2]oct-1-yl)-4-oxo-1,4-dihydro-1,8-naphthyridine-3-carboxamide]",34,42,–,–,–
"CC(C)C(NC(=O)c1cn(-c2c(F)cc(F)cc2F)c2nc(N3C[C@@H](O)CC3=O)ccc2c1=O)C(F)(F)F (single isomer, unassigned) [Example 528]",–,–,66,6,Efficiency (human M2 receptor [2]; M2-GIRK1/4 reporter cells): 100.0%
"CC[C@H](NC(=O)c1cn(-c2ccc(F)cc2F)c2nc(N3CCC(O)C3)ccc2c1=O)C(F)(F)F (single isomer, unassigned) [Example 220]",29,116,–,–,–
"O=C(NC12CCC(F)(CC1)CC2)c1cn(-c2ccc(F)cc2F)c2nc(NCC(F)(F)F)ccc2c1=O [Example 97, 1-(2,4-Difluorophenyl)-N-(4-fluorobicyclo[2.2.2]oct-1-yl)-4-oxo-7-[(2,2,2-trifluoroethyl)amino]-1,4-dihydro-1,8-naphthyridine-3-carboxamide]",9,209,–,–,–
"O=C(NC1(C(F)(F)F)CCC1)c1cn(-c2c(F)cc(F)cc2F)c2nc(N3CCNC3=O)ccc2c1=O [Example 596, 4-Oxo-7-(2-oxoimidazolidin-1-yl)-N-[1-(trifluoromethyl)cyclobutyl]-1-(2,4,6-trifluorophenyl)-1,4-dihydro-1,8-naphthyridine-3-carboxamide]",–,–,19,21,Emax (human M2 receptor [2]; [7]): 98.5%
"CC(COC(F)(F)F)NC(=O)c1cn(-c2ccc(F)cc2F)c2nc(N3CC[C@H](F)C3)ccc2c1=O (single isomer, unassigned) [Example 228]",12,51,–,–,–
"O=C(NC(C1CCC1)C(F)(F)F)c1cn(-c2c(F)cc(F)cc2F)c2nc(N3C[C@@H](O)CC3=O)ccc2c1=O (single isomer, unassigned) [Example 506]",–,–,57,7,Emax (human M2 receptor [2]; [7]): 100%
"CC[C@@H](NC(=O)c1cn(-c2ccccc2F)c2nc(N3C[C@@H](O)CC3=O)ccc2c1=O)C(F)(F)F [Example 239, 1-(2-Fluorophenyl)-7-[(4S)-4-hydroxy-2-oxopyrrolidin-1-yl]-4-oxo-N-[(2R)-1,1,1-trifluorobutan-2-yl]-1,4-dihydro-1,8-naphthyridine-3-carboxamide]",30,112,–,–,Emax (human M2 receptor [2]; read-out: Efficiency): 99.3%
